Test results from US20060148714A1, “Therapeutic peptide-based constructs” (priority 1999, published 2006).
Values after ≈ are worked out from the molar mass of the structure shown. Where a SMILES comes first, the peptide text is derived from it. Where no end group is shown, it is not given here. [ ]: non-standard residue; d: D form. The star is where a group is joined. 2‑biphenylenecarbonyl = O=C(c1ccc2c(c1)-c1ccccc1-2)*; Acetyl(2-naphthyl) = O=C(Cc1ccc2ccccc2c1)*; d1Nal = N[C@H](Cc1cccc2ccccc12)C(=O)O

Columns and labels:
[1] = test system: Factor Xa neutralization by ATIII/heparin complexes; assay: Chromostrate heparin anti-Factor Xa assay (heparin neutralization); format: biochemical; conditions: absorbance at 405 nm
Protocol: A Chromostrate™ assay was used to determine the effect of peptide-based constructs, including derivatized constructs, and the effect protamine sulfate (as a positive control) on Factor Xa neutralization by ATIII/heparin complexes. The assay was conducted using a Chromostrate™ heparin anti-Factor Xa assay kit (Organon Teknika Corp., Durham, N.C.). Heparin concentration was varied so that a heparin standard curve was generated. The assay measured the potentiating effect of heparin on anti-Xa activity in vitro. Solution containing heparin is incubated in the presence of ATIII with an excess of Factor Xa, forming an ATIII-Heparin-Xa complex. The remaining Xa catalyzes the release of p-nitroaniline (pNA) from the chromogenic substrate. The release of p-nitroaniline is measured at 405 nm. The absorbance obtained in inversely porportional to the concentration of heparin in the sample.
Reagents for the assay are prepared as follows. Heparin, peptide-based constructs and protamine sulfate stocks are made in saline. Stock solutions are approximately 1 mg/mL=1 μg/μL. Factor Xa reagent and substrate reagent are reconstituted with 2.0 mL purified water. Antithrombin III (ATIII) reagent is reconstituted with 1.0 mL purified water. The assay is performed in 96 well microtiter plates. Assay components are added to the microtiter wells as follows: 12.5 μl of heparin (from 0 to 10 U/mL), 25 μl of construct or protamine sulfate, 12.5 μL of ATIII (0.5 PEU/mL), 25 μL of bovine Factor Xa (14 nKat/mL), 25 μL substrate (3 μmoles/mL). The reaction is allowed to proceed for 20 minutes and then 25 μL of 0.1 M acetic acid is added. The color reaction is quantitated on a microplate reader at 405 nm. Constructs that neutralize heparin show an increase in the absorbance at 405 nm. Protamine is used as a positive control and its activity is designated as 100%. The percent (%) heparin neutralization for each peptide construct is calculated relative to the neutralization by protamine (100%), and shown in Table IV.

[2] = Behaviour in 1 mg/ml stock solution; format: physicochemical; design: key: b: precipitated in 1 mg/ml stock solution; conditions: no IC50 given
LPS = assay: RAW cell assay of LPS neutralization; format: cell-based
[3] = test system: human umbilical vein endothelial cells (HUVEC); format: cell-based
Protocol: Briefly, human umbilical vein endothelial cells (HUVEC) were cultured in EGM-2 medium (Clonetics Corp., San Diego, Calif.), harvested and plated onto a 96-well culture plate. After 24 hours of quiescence, the cells were co-cultured with various peptide-based constricts in the presence of growth factors for 72 hours to test their activity. Cell proliferation was quantitated by tritiated thymidine incorporation into DNA and was expressed in counts per minute (cpm).
Details of the experimental procedures were as follows: HUVEC cells were cultured in EGM-2 media from Clonetics Corp., a subsidiary of BioWhittaker, Inc., San Diego, Calif. [EGM-2 is Endothelial Cell Basal Medium-2 (EMB-2) supplemented with growth factors (hFGF-B, VEGF, IGF-1, hEGF) ascorbic acid, heparin, GA-1000 and 2% FBS), in T75 flasks until confluent (˜4-7 days). Cells were harvested by trypsinizing the cells using 0.025% trypsin/EDTA for 5 minutes. To stop the reaction, 2-5% FBS was added. The cells were centrifuged and washed 3 times using Hank's Balanced Salt Solution (HBSS) or Dulbecco's Phosphate Buffered Saline D-PBS. The pellet was then resuspended in EBM-2 supplemented with 0.1% FBS and GA-1000 was used. The cells were counted and a cell suspension was prepared at 2×10^5/mL in EBM-2 with 0.1% FBS; cells were dispensed into a 96-well flat bottomed culture plate at 0.1 mL/well (total: ˜20,000 cells/well in 0.1% FBS-EBM-2). Incubation continued at 37° C. in 5% CO2 for 20-24 hours. The next day peptide-based constructs were prepared for testing in a 96 well plate. The supernatant was aspirated from the cell-well, replaced with EBM-2 or the testing reagent at 20 μL/well. Then, 180 μL/well of 1.12% FBS-GFS were added to make a final concentration of 1% FBS-GFS in EBM-2. This aspiration and addition was done well-by-well. ^3H-thymidine (100 μCi/mL) was added at 10 μL/well (1 μCi/well, final). Incubation continued at 37° C., 5% CO2 for 72 hours. To harvest the plate, the supernatant was aspirated off from the cell-well and then 75 μL-100 μL/well of 0.025% trypsin-EDTA was added. After incubation for 8-10 minutes at room temperature in the hood, the cells were checked and 100 μL/well of 2-5% FBS-PBS was added to stop the reaction. The plate was then harvested, dried and counted using an Inotech cell harvester (Inotech Biosystems, INB-384, Sample Processing and Filter Counting System, Lansing, Mich.).

[4] = test system: bFGF-induced angiogenesis; assay: In vivo Matrigel angiogenesis assay (hemoglobin content of excised gel); conditions: 10 μg peptide construct per gel; hemoglobin of gel excised ten days after s.c. injection; C57BL/6J mice
Protocol: For these experiments, peptide-based constructs according to the invention were assayed for their ability to inhibit heparin-induced angiogenesis in vivo in mice. Basement membrane matrix (Matrigel®, Becton Dickinson Labware, Mountain View, Calif.) was thawed and maintained at 4° C. and angiogenic factors were added to the gel in the liquid state generally as described in Passaniti et al., 1992, Lab. Invest. 67: 519-528. Heparin sodium (Sigma, St. Louis, Mo.) was dissolved in sterile PBS to various concentrations ranging from 1,250-10,000 U/mL, and used in these experiments at 8,000 U/mL. Human recombinant basic fibroblast growth factor (bFGF; Sigma) was reconstituted into 1. % BSA in PBS to 25 μg/mL. A volume of 2.5 μL dissolved heparin solution and 4.0 μL recombinant bFGF were added to 0.5 mL Matrigel® mixture per mouse injection. Peptide-based constructs were added to this Matrigel® mixture at varying concentrations ranging from 0.5 to 50 μg/mL (final concentration) in 10 μL/0.5 mL Matrigel® aliquot per experimental animal. Ten μL sterile PBS was substituted for peptide-based constructs in Matrigel® aliquots injected into control animals.
Female C57BL/6J mice (Jackson Laboratory, Bar Barbor, Me.) at 6-8 weeks of age (maintained under NIH guidelines) were injected subcutaneously down the dorsal midline with 0.5 mL aliquots of Matrigel® prepared as described above. Ten days after injection, the Matrigel® gels were excised and placed in Drabkin's reagent (Sigma). Total protein and hemoglobin content can be determined for the gels stored in Drabkin's reagent after mechanical homogenization of the gels. Hemoglobin concentration was measured using Sigma Procedure #525 and reagents supplied by Sigma (St. Louis, Mo.) to be used with this procedure. If desired, total protein levels are determined using a microplate assay that is commercially embodied in a kit (DC Protein Assay, Bio-Rad, Richmond, Calif.).
Gels to be used for histological staining are formalin-fixed immediately after excision from the animals rather than being placed in Drabkin's reagent. Formalin-fixed gels are embedded in Tissue-Tek O.C.T. compound (Miles, Inc., Elkhart, Ind.) for frozen sectioning. Slides of frozen sections are stained with hematoxylin and eosin (as described by Humason, 1979, Animal Tissue Techniques, 4th Ed. W.H. Feeman & Co., San Francisco, Calif., Ch. 9, pp. 111-131). The effect of peptides are detected by microscopic examination of frozen stained sections for inhibition of angiogenesis relative to Matrigel® gel slices prepared without added peptides. The extent of angiogenesis inhibition is quantitated using the normalized amounts of hemoglobin found in BPI peptide-containing gel slices.
Data are presented as the means of triplicate determinations of hemoglobin concentrations from the excised gel (ISEM) with ten mice per group.

[5] = test system: retinal endothelial cells; assay: Retinal endothelial cell growth stimulated by VEGF (DNA content); format: cell-based, bovine; conditions: 5 μg/mL and 15 μg/mL
Protocol: In these experiments, peptide-based constructs are tested for their activity on the action of VEGF, bFGF, IGF-1 and conditioned media (hypoxia and hyperglycemia) on the in vitro growth and migration of retinal pigmented epithelial cells (RPE), retinal microvessel pericytes, and retinal endothelial cells. Effects are evaluated on gene expression under hypoxic or […] conditions. In additional experiments, the effects of such constructs are characterized in vivo on the neovascular responses to hyperoxia in the retina of the neonatal mouse.
For the in vitro culture experiments, retinal microvessel pericytes, retinal endothelial cells, and retinal pigmented epithelial cells (RPE) are cultured from bovine retina. Dose responses and time course for growth and migration as stimulated by VEGF, bFGF, and IGF-1 are performed. For example, retinal endothelial cell growth as stimulated by VEGF was inhibited with 5 μg/mL and 15 μg/mL XMP.679 as measured by DNA content (ng/cell well). […] When the dose responses of these growth factors and conditioned media are determined, the effect of peptide-based constructs independently, and in combination with the growth factors described above, are tested in growth and migration assays.

[6] = test system: E. coli (J5 and 0111 B4), Staphylococcus aureus and Candida albicans; assay: Broth and/or radial diffusion antimicrobial assays; format: cell-based
Text: Assays useful for testing a variety of biological activities of BPI protein products, including BPI-derived peptides, are described in co-owned U.S. Pat. Nos. 5,733,872; 5,763,567; 5,652,332; and 5,856,438 and corresponding PCT Publication Nos. WO 94/20532 (PCT/US94/02465) and WO 95/19372 (PCT/US94/10427) and U.S. Pat. No. 5,858,974 and corresponding PCT Publications Nos. WO 96/08509 (PCT/US95/09262) and WO 97/04008 (PCT/US96/03845), incorporated herein by reference. These activities include antimicrobial (including antibacterial and antifungal), LPS binding, LPS neutralization and additional assays of heparin binding as well as heparin neutralization.

| Compound | Assay A: percent heparin neutralization relative to protamine (100%) [1] [%] | Assay B: percent heparin neutralization relative to protamine (100%) [1] [%] | precipitated in 1 mg/ml stock solution [2] | LPS neutralization activity (LPS) | IC50 values, additional assays ([3]; HUVEC proliferation, purified constructs, said to be comparable to Table II (μg/mL)) | % Inhibition [4] [%] | IC50 ([3]; 72 h) [µg/mL] | cell growth by DNA content in treated VEGF-stimulated cells versus unstimulated cells [5] | retinal endothelial cell growth as stimulated by VEGF, measured by DNA content (ng/cell well) [5] | antimicrobial activity [6] |
| --- | --- | --- | --- | --- | --- | --- | --- | --- | --- | --- |
| 2-biphenylenecarbonyl-k-l-f-r-(naph-a)-q-a-k ({2‑biphenylenecarbonyl}-[dK][dL][dF][dR][dNal][dQ][dA][dK]; not fully specified; printed as 2-biphenylenecarbonyl-k-l-f-r-(naph-a)-q-a-k) [XMP.699] | 45 | 23 | b | – | – | – | – | – | – | – |
| 2-naphthylacetyl-k-l-f-r-(naph-a)-q-a-k ({Acetyl(2-naphthyl)}-[dK][dL][dF][dR][dNal][dQ][dA][dK]; not fully specified; printed as 2-naphthylacetyl-k-l-f-r-(naph-a)-q-a-k) [XMP.666] | 39 | 18 | b | – | – | – | – | – | – | – |
| CC[C@@H](C)[C@@H](NC(=O)[C@@H](CO)NC(=O)CNC(=O)[C@@H](CCCCN)NC(=O)[C@@H](Cc1cccc2ccccc12)NC(=O)[C@@H](CCCCN)NC(=O)[C@@H](C)NC(=O)[C@@H](CCC(N)=O)NC(=O)[C@@H](Cc1cccc2ccccc12)NC(=O)[C@@H](CCCNC(=N)N)NC(=O)[C@@H](Cc1ccccc1)NC(=O)[C@@H](CC(C)C)NC(=O)[C@H](N)CCCCN)C(=O)N[C@H](CCCCN)C(N)=O [XMP.624, k-l-f-r-(naph-a)-q-a-k-(naph-a)-k-g-s-i-k] (H-[dK][dL][dF][dR][d1Nal][dQ][dA][dK][d1Nal][dK]G[dS][dI][dK]-NH2) | 131 | 94 | – | showed activity | 4.9 ±0.5 | 51.9 | – | – | – | – |
| CC(C)C[C@@H](NC(=O)[C@H](N)CCCCN)C(=O)N[C@H](Cc1ccccc1)C(=O)N[C@H](CCCCN)C(=O)N[C@H](Cc1cccc2ccccc12)C(=O)N[C@H](CCC(N)=O)C(=O)N[C@H](C)C(=O)N[C@H](CCCCN)C(=O)N[C@H](Cc1cccc2ccccc12)C(=O)N[C@H](CCCCN)C(=O)NCC(N)=O [XMP.679, k-l-f-k-(naph-a)-q-a-k-(naph-a)-k-g] (H-[dK][dL][dF][dK][d1Nal][dQ][dA][dK][d1Nal][dK]G-NH2; N-terminus assumed) | 96 | 94 | – | – | – | – | 6.3 ± 0.9 (≈ 4.37 µM) | comparable with that of cells not stimulated by VEGF | inhibited | highest antimicrobial activities |
